≈ marks a conversion by molar mass, not a printed value.
Columns and labels:
Moraxella catarrhalis = assay: In vitro antibacterial activity against Branhamella catarrhalis Ravasio (resistance due to beta-lactamase); assay type: functional
Escherichia coli [1] = assay: In vitro antibacterial activity against Escherichia coli 1077 (resistance due to beta-lactamase); assay type: functional
Escherichia coli [2] = assay: In vitro antibacterial activity against Escherichia coli ESS; assay type: functional
Escherichia coli [3] = assay: In vitro antibacterial activity against Escherichia coli JT425 (resistance due to beta-lactamase); assay type: functional
Escherichia coli [4] = assay: In vitro antibacterial activity against Escherichia coli 10418; assay type: functional
Haemophilus influenzae [5] = assay: In vitro antibacterial activity against Haemophilus influenzae Q1; assay type: functional
Klebsiella pneumoniae = assay: In vitro antibacterial activity against Klebsiella pneumoniae T767; assay type: functional
Morganella morganii = assay: In vitro antibacterial activity against Morganella morganii T361; assay type: functional
Proteus mirabilis = assay: In vitro antibacterial activity against Proteus mirabilis C977; assay type: functional
Pseudomonas aeruginosa [6] = assay: In vitro antibacterial activity against Pseudomonas aeruginosa 10662; assay type: functional
Staphylococcus aureus [7] = assay: In vitro antibacterial activity against Staphylococcus aureus Russell (resistance due to beta-lactamase); assay type: functional
Streptococcus pneumoniae [8] = assay: In vitro antibacterial activity against Streptococcus pneumoniae 1716; assay type: functional
Streptococcus pneumoniae [9] = assay: In vitro antibacterial activity against Streptococcus pneumoniae PU7 (resistance due to modified target enzyme; assay type: functional
Streptococcus agalactiae = assay: In vitro antibacterial activity against Streptococcus agalactiae 2798; assay type: functional
Staphylococcus aureus [10] = assay: In vitro antibacterial activity against Staphylococcus aureus MB9; assay type: functional
Staphylococcus aureus [11] = assay: In vitro antibacterial activity against Staphylococcus aureus Oxford; assay type: functional
Streptococcus pyogenes = assay: In vitro antibacterial activity against Streptococcus pyogenes CN10; assay type: functional
[12] = system: Staphylococcus epidermidis; assay: In vitro antibacterial activity against Staphylococcus epidermidis PHLN20; assay type: functional
Enterococcus faecalis [13] = assay: In vitro antibacterial activity against Streptococcus faecalis I; assay type: functional
Staphylococcus aureus [14] = assay: In vitro antibacterial activity against Staphylococcus aureus V573 (resistance due to modified target enzyme); assay type: functional
[15] = Half-life in a rat liver homogenate preparation; assay type: ADME
Haemophilus influenzae [16] = assay: In vitro antibacterial activity against Haemophilus influenzae NEMC (resistance due to beta-lactamase); assay type: functional
Enterococcus faecalis [17] = assay: In vitro antibacterial activity against S. faecalis I; assay type: functional
Pseudomonas aeruginosa [18] = assay: In vitro antibacterial activity was determined against Pseudomonas aeruginosa 10662; assay type: functional
Staphylococcus aureus [19] = assay: In vitro antibacterial activity against Staphylococcus aureus Russell (resistance due to beta-lactamase; assay type: functional
Streptococcus pneumoniae [20] = assay: In vitro antibacterial activity against Streptococcus pneumoniae PU7 (resistance due to modified target enzyme); assay type: functional
Staphylococcus aureus [21] = assay: In vitro antibacterial activity against S. aureus MB9; assay type: functional

SMILES | MIC (Moraxella catarrhalis) [µg/mL] | MIC (Escherichia coli [1]) [µg/mL] | MIC (Escherichia coli [2]) [µg/mL] | MIC (Escherichia coli [3]) [µg/mL] | MIC (Escherichia coli [4]) [µg/mL] | MIC (Haemophilus influenzae [5]) [µg/mL] | MIC (Klebsiella pneumoniae) [µg/mL] | MIC (Morganella morganii) [µg/mL] | MIC (Proteus mirabilis) [µg/mL] | MIC (Pseudomonas aeruginosa [6]) [µg/mL] | MIC (Staphylococcus aureus [7]) [µg/mL] | MIC (Streptococcus pneumoniae [8]) [µg/mL] | MIC (Streptococcus pneumoniae [9]) [µg/mL] | MIC (Streptococcus agalactiae) [µg/mL] | MIC (Staphylococcus aureus [10]) [µg/mL] | MIC (Staphylococcus aureus [11]) [µg/mL] | MIC (Streptococcus pyogenes) [µg/mL] | MIC [12] [µg/mL] | MIC (Enterococcus faecalis [13]) [µg/mL] | MIC (Staphylococcus aureus [14]) [µg/mL] | other results
C/C=C(\C)C(=O)OCC1=C(C(=O)O)N2C(=O)[C@@H](NC(=O)/C(=N\O)c3cnc(N)s3)[C@H]2SC1 | 4 (≈ 8.31 µM) | 0.25 (≈ 0.519 µM) | ≤ 0.03 | 0.5 (≈ 1.04 µM) | 0.12 (≈ 0.249 µM) | ≤ 0.03 | 0.5 (≈ 1.04 µM) | 0.12 (≈ 0.249 µM) | 0.25 (≈ 0.519 µM) | > 64 | 0.5 (≈ 1.04 µM) | ≤ 0.03 | 0.5 (≈ 1.04 µM) | ≤ 0.03 | 0.5 (≈ 1.04 µM) | 0.25 (≈ 0.519 µM) | ≤ 0.03 | 0.25 (≈ 0.519 µM) | > 64 | 8 (≈ 16.6 µM) | 
CC(=O)OCC1=C(C(=O)O)N2C(=O)[C@@H](NC(=O)/C(=N\O)c3cnc(N)s3)[C@H]2SC1 | 2 (≈ 4.53 µM) | 0.06 (≈ 0.136 µM) | < 0.03 | 1 (≈ 2.27 µM) | 0.06 (≈ 0.136 µM) | 0.12 (≈ 0.272 µM) | 0.06 (≈ 0.136 µM) | 0.06 (≈ 0.136 µM) | 0.06 (≈ 0.136 µM) | > 32 | 0.5 (≈ 1.13 µM) | 0.06 (≈ 0.136 µM) | 2 (≈ 4.53 µM) | 0.06 (≈ 0.136 µM) | 0.5 (≈ 1.13 µM) | 0.25 (≈ 0.566 µM) |  | 0.25 (≈ 0.566 µM) |  | > 32 | half-life [15]: ≤ 15 min; MIC (Haemophilus influenzae [16]): 0.06 µg/mL (≈ 0.136 µM); MIC (Enterococcus faecalis [17]): 4 µg/mL (≈ 9.06 µM)
CC(C)=CC(=O)OCC1=C(C(=O)O)N2C(=O)[C@@H](NC(=O)/C(=N\O)c3cnc(N)s3)[C@H]2SC1 | 4 (≈ 8.31 µM) | 0.25 (≈ 0.519 µM) | < 0.03 | 0.5 (≈ 1.04 µM) | 0.06 (≈ 0.125 µM) | 0.06 (≈ 0.125 µM) | 0.5 (≈ 1.04 µM) | 0.25 (≈ 0.519 µM) | 0.25 (≈ 0.519 µM) |  |  | < 0.03 |  | < 0.03 | 0.5 (≈ 1.04 µM) | 0.25 (≈ 0.519 µM) | < 0.03 | 0.25 (≈ 0.519 µM) | 8 (≈ 16.6 µM) | 8 (≈ 16.6 µM) | MIC (Haemophilus influenzae [16]): < 0.03 µg/mL; MIC (Pseudomonas aeruginosa [18]): > 64 µg/mL; MIC (Staphylococcus aureus [19]): 0.5 µg/mL (≈ 1.04 µM); MIC (Streptococcus pneumoniae [20]): 0.5 µg/mL (≈ 1.04 µM)
C=C(C)C(=O)OCC1=C(C(=O)O)N2C(=O)[C@@H](NC(=O)/C(=N\O)c3cnc(N)s3)[C@H]2SC1 | 0.5 (≈ 1.07 µM) | 0.06 (≈ 0.128 µM) | < 0.03 | 0.12 (≈ 0.257 µM) | < 0.03 | < 0.03 | 0.12 (≈ 0.257 µM) | 0.06 (≈ 0.128 µM) | 0.06 (≈ 0.128 µM) | 64 (≈ 137 µM) | 0.25 (≈ 0.535 µM) | < 0.03 | 1 (≈ 2.14 µM) | < 0.03 |  | 0.06 (≈ 0.128 µM) | < 0.03 | 0.06 (≈ 0.128 µM) | 32 (≈ 68.5 µM) | 2 (≈ 4.28 µM) | MIC (Staphylococcus aureus [21]): 0.25 µg/mL (≈ 0.535 µM)
CO/N=C(\C(=O)N[C@@H]1C(=O)N2C(C(=O)O)=C(COC(C)=O)CS[C@H]12)c1csc(N)n1 [CEFOTAXIME] | 0.25 (≈ 0.549 µM) |  | < 0.03 | 0.5 (≈ 1.1 µM) | < 0.03 | < 0.03 | 0.06 (≈ 0.132 µM) | 2 (≈ 4.39 µM) | < 0.03 | 16 (≈ 35.1 µM) | 2 (≈ 4.39 µM) | < 0.03 | 2 (≈ 4.39 µM) | 0.12 (≈ 0.263 µM) | 4 (≈ 8.78 µM) | 2 (≈ 4.39 µM) | < 0.03 | 1 (≈ 2.2 µM) |  | 32 (≈ 70.3 µM) | half-life [15]: ≤ 15 min; MIC (Enterococcus faecalis [17]): > 64 µg/mL

From ChEMBL document CHEMBL1152009, “Synthesis and biological activity of some 3-acryloxymethyl cephalosporins” (Bioorg Med Chem Lett, 1995)
